Counter-ions that a name gives are not always drawn.
system: Jurkat HIV-luciferase clones; assay: Jurkat latency reversal assay; type: cell-based; details: Homo sapiens, Jurkat, 48 h
Method in brief: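 Three pooled Jurkat HIV-luciferase clones (C16, I15, N6; 5,000 cells/well, maintained with 500 nM EFV) exposed to 3-fold, 14-point titrations (10 μM to 2.1 pM, 0.5% DMSO) in duplicate for 48 h at 37 °C. Luciferase luminescence read; EC50 and maximal % activation versus vehicle from four-parameter logistic fit.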

Row | Structure (SMILES) | EC50
1 | CN[C@@H](C)C(=O)N[C@H]1CCS[C@H]2CC(C)(C)[C@@H](C(=O)N[C@H]3c4ccccc4C[C@H]3OCCCOCCCO[C@@H]3Cc4ccccc4[C@@H]3NC(=O)[C@H]3N4C(=O)[C@@H](NC(=O)[C@H](C)NC)CCS[C@H]4CC3(C)C)N2C1=O [compound 51, (4S,7S,9aS)-N-[(1S,2R)-2-[3-(3-{[(1S,2R)-1-[(4S,7S,9aS)-8,8-dimethyl-4-[(2S)-2-(methylamino)propanamido]-5-oxo-octahydropyrrolo[2,1-b][1,3]thiazepine-7-amido]-2,3-dihydro-1H-inden-2-yl]oxy}propoxy)propoxy]-2,3-dihydro-1H-inden-1-yl]-8,8-dimethyl-4-[(2S)-2-(methylamino)propanamido]-5-oxo-octahydropyrrolo[2,1-b][1,3]thiazepine-7-carboxamide] | 24 nM
2 | CN[C@@H](C)C(=O)N[C@H]1CCS[C@H]2CC(C)(C)[C@@H](C(=O)N[C@H]3c4ccccc4C[C@H]3C(=O)N3CCN(C(=O)[C@@H]4Cc5ccccc5[C@@H]4NC(=O)[C@H]4N5C(=O)[C@@H](NC(=O)[C@H](C)NC)CCS[C@H]5CC4(C)C)CC3)N2C1=O [compound 46, (4S,7S,9aS)-N-[(1R,2R)-2-{4-[(1R,2R)-1-[(4S,7S,9aS)-8,8-dimethyl-4-[(2S)-2-(methylamino)propanamido]-5-oxo-octahydropyrrolo[2,1-b][1,3]thiazepine-7-amido]-2,3-dihydro-1H-indene-2-carbonyl]piperazine-1-carbonyl}-2,3-dihydro-1H-inden-1-yl]-8,8-dimethyl-4-[(2S)-2-(methylamino)propanamido]-5-oxo-octahydropyrrolo[2,1-b][1,3]thiazepine-7-carboxamide] | 127 nM
3 | CN[C@@H](C)C(=S)N[C@H]1CCS[C@H]2CC(C)(C)[C@@H](C(=O)N[C@H](COCCCn3cc(COC[C@@H](NC(=O)[C@H]4N5C(=O)[C@@H](NC(=S)[C@H](C)NC)CCS[C@H]5CC4(C)C)c4ccccc4)nn3)c3ccccc3)N2C1=O [compound 53, (4S,7S,9aS)-N-[(1S)-2-[3-(4-{[(2S)-2-{[(4S,7S,9aS)-8,8-dimethyl-4-[(2S)-2-(methylamino)propanethioamido]-5-oxo-octahydropyrrolo[2,1-b][1,3]thiazepin-7-yl]formamido}-2-phenylethoxy]methyl}-1H-1,2,3-triazol-1-yl)propoxy]-1-phenylethyl]-8,8-dimethyl-4-[(2S)-2-(methylamino)propanethioamido]-5-oxo-octahydropyrrolo[2,1-b][1,3]thiazepine-7-carboxamide] | 178 nM
4 | CN[C@@H](C)C(=S)N[C@H]1CCS[C@H]2CC(C)(C)[C@@H](C(=O)N[C@H]3c4ccccc4C[C@H]3OCCCCO[C@@H]3Cc4ccccc4[C@@H]3NC(=O)[C@H]3N4C(=O)[C@@H](NC(=S)[C@H](C)NC)CCS[C@H]4CC3(C)C)N2C1=O [compound 17, (4S,4′S,7S,7′S,9aS,9a′S)-N,N′-((1S,1′S,2R,2′R)-(butane-1,4-diylbis(oxy))bis(2,3-dihydro-1H-indene-2,1-diyl))bis(8,8-dimethyl-4-((S)-2-(methylamino)propanethioamido)-5-oxooctahydropyrrolo[2,1-b][1,3]thiazepine-7-carboxamide) dihydrochloride] | 20.7 nM
5 | CN[C@@H](C)C(=O)N[C@H]1CCS[C@H]2CC(C)(C)[C@@H](C(=O)Nc3ccccc3CCc3ccccc3NC(=O)[C@H]3N4C(=O)[C@@H](NC(=O)[C@H](C)NC)CCS[C@H]4CC3(C)C)N2C1=O [compound 3, (4S,4′S,7S,7′S,9aS,9a′S)-N,N′-(ethane-1,2-diylbis(2,1-phenylene))bis(8,8-dimethyl-4-((S)-2-(methylamino)propanamido)-5-oxooctahydropyrrolo[2,1-b][1,3]thiazepine-7-carboxamide) dihydrochloride] | 80.5 nM
6 | CN[C@@H](C)C(=O)N[C@H]1CCS[C@H]2CC(C)(C)[C@@H](C(=O)N[C@H]3c4ccccc4C[C@H]3OCCCCCCCCO[C@@H]3Cc4ccccc4[C@@H]3NC(=O)[C@H]3N4C(=O)[C@@H](NC(=O)[C@H](C)NC)CCS[C@H]4CC3(C)C)N2C1=O [compound 63, (4S,4′S,7S,7′S,9aS,9a′S)-N,N′-((1S,1′S,2R,2′R)-(octane-1,8-diylbis(oxy))bis(2,3-dihydro-1H-indene-2,1-diyl))bis(8,8-dimethyl-4-((S)-2-(methylamino)propanamido)-5-oxooctahydropyrrolo[2,1-b][1,3]thiazepine-7-carboxamide) dihydrochloride] | 11.6 nM
7 | CN[C@@H](C)C(=O)N[C@H]1CCS[C@H]2CC(C)(C)[C@@H](C(=O)N[C@H]3c4ccccc4C[C@H]3C(=O)NCc3ccc(CNC(=O)[C@@H]4Cc5ccccc5[C@@H]4NC(=O)[C@H]4N5C(=O)[C@@H](NC(=O)[C@H](C)NC)CCS[C@H]5CC4(C)C)cc3)N2C1=O [compound 45, (4S,7S,9aS)-N-[(1R,2R)-2-({[4-({[(1R,2R)-1-[(4S,7S,9aS)-8,8-dimethyl-4-[(2S)-2-(methylamino)propanamido]-5-oxo-octahydropyrrolo[2,1-b][1,3]thiazepine-7-amido]-2,3-dihydro-1H-inden-2-yl]formamido}methyl)phenyl]methyl}carbamoyl)-2,3-dihydro-1H-inden-1-yl]-8,8-dimethyl-4-[(2S)-2-(methylamino)propanamido]-5-oxo-octahydropyrrolo[2,1-b][1,3]thiazepine-7-carboxamide] | 183 nM
8 | CN[C@@H](C)C(=O)N[C@H]1CCS[C@H]2CC(C)(C)[C@@H](C(=O)N[C@H](C(=O)NCc3ccc(CNC(=O)[C@@H](NC(=O)[C@H]4N5C(=O)[C@@H](NC(=O)[C@H](C)NC)CCS[C@H]5CC4(C)C)c4ccccc4)cc3)c3ccccc3)N2C1=O [compound 24, (4S,4′S,7S,7′S,9aS,9a′S)-N,N′-((1S,1′S)-((1,4-phenylenebis(methylene))bis(azanediyl))bis(2-oxo-1-phenylethane-2,1-diyl))bis(8,8-dimethyl-4-((S)-2-(methylamino)propanamido)-5-oxooctahydropyrrolo[2,1-b][1,3]thiazepine-7-carboxamide)] | 47.9 nM
9 | CN[C@@H](C)C(=O)N[C@H]1CCS[C@H]2CC(C)(C)[C@@H](C(=O)N[C@H](COCCCCOC[C@@H](NC(=O)[C@H]3N4C(=O)[C@@H](NC(=O)[C@H](C)NC)CCS[C@H]4CC3(C)C)c3ccccc3)c3ccccc3)N2C1=O [compound 36, (4S,4′S,7S,7′S,9aS,9a′S)-N,N′-((1S,1′S)-(butane-1,4-diylbis(oxy))bis(1-phenylethane-2,1-diyl))bis(8,8-dimethyl-4-((S)-2-(methylamino)propanamido)-5-oxooctahydropyrrolo[2,1-b][1,3]thiazepine-7-carboxamide) dihydrochloride] | 9.5 nM
10 | CN[C@@H](C)C(=O)N[C@H]1CCS[C@H]2CC(C)(C)[C@@H](C(=O)N[C@H](COCc3ccc4cc(COC[C@@H](NC(=O)[C@H]5N6C(=O)[C@@H](NC(=O)[C@H](C)NC)CCS[C@H]6CC5(C)C)c5ccccc5)ccc4c3)c3ccccc3)N2C1=O [compound 62, (4S,4′S,7S,7′S,9aS,9a′S)-N,N′-((1S,1′S)-((naphthalene-2,6-diylbis(methylene))bis(oxy))bis(1-phenylethane-2,1-diyl))bis(8,8-dimethyl-4-((S)-2-(methylamino)propanamido)-5-oxooctahydropyrrolo[2,1-b][1,3]thiazepine-7-carboxamide)] | 4.2 nM

From patent publication US11492361B2, “Compounds useful in HIV therapy” (GlaxoSmithKline Intellectual Property Development Limited, priority 2018, dated 2022)
